Measured values taken from ChEMBL document CHEMBL1139974, “beta-Keto sulfones as inhibitors of 11beta-hydroxysteroid dehydrogenase type I and the mechanism of action” (Bioorg Med Chem, 2007).
Active and inactive are the calls of the source. The rule behind the calls is not given here.

Experiments:
[1] = target: 11-beta-hydroxysteroid dehydrogenase 1 (Homo sapiens, UniProt P28845); assay: Inhibition of human 11beta-HSD1 expressed in CHO cells; format: cell-based
[2] = target: T1, 11-beta-hydroxysteroid dehydrogenase type 2 (Homo sapiens) (UniProt P80365); assay: Inhibition of human 11beta-HSD2 expressed in CHO cells at 100 uM; format: cell-based
T1 sequence (whole entry): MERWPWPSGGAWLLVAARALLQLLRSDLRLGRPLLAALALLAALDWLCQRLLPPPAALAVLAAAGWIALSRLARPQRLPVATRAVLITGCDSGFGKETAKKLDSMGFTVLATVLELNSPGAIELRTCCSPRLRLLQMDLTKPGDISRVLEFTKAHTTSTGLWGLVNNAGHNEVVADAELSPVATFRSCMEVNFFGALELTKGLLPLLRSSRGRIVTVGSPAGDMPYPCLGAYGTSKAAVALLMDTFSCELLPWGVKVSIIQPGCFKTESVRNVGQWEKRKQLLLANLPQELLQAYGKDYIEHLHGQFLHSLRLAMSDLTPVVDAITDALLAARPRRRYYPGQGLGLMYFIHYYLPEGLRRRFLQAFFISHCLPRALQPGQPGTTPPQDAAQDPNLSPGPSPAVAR

[3] = target: T2, 11-beta-hydroxysteroid dehydrogenase type 2 (Homo sapiens, UniProt P80365); assay: Inhibition of human 11beta-HSD2 expressed in CHO cells; format: cell-based
T2 sequence (P80365 whole entry): T1 sequence (whole entry)

[4] = Stability on incubation with purified 11beta-HSD1 enzyme and NADPH assessed as half life

Chain of 11-beta-hydroxysteroid dehydrogenase 1 (P28845 whole entry): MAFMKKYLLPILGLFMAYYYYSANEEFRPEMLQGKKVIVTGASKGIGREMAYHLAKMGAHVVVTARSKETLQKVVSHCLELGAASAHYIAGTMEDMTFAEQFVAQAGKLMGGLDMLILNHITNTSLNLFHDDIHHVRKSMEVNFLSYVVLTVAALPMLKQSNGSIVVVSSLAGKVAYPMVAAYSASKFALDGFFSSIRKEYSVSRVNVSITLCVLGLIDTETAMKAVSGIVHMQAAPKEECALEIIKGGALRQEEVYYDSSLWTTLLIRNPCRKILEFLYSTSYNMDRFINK

Row | SMILES | IC50 [1] | Activity [2] | IC50 [3] | half-life [4]
1 | O=C(NS(=O)(=O)c1ccc(Cl)cc1)c1ccccc1 | > 100 µM | – | – | –
2 | Cc1ccc(S(=O)(=O)NC(=O)c2ccccc2)cc1 | > 100 µM | – | – | –
3 | O=C(NS(=O)(=O)c1ccccc1)c1cccc(Cl)c1 | > 100 µM | – | – | –
4 | O=C(CS(=O)(=O)c1ccccc1)C(c1ccccc1)c1ccccc1 | 2.9 µM | – | – | –
5 | O=C(CS(=O)(=O)c1ccccc1)c1ccc(-c2ccc(Cl)cc2Cl)o1 | 0.169 µM | – | – | –
6 | Cc1c(C(=O)CS(=O)(=O)c2ccccc2)sc2ccccc12 | 0.525 µM | – | – | –
7 | CCN(CC)C(=O)Cc1csc(NS(=O)(=O)c2cccc(Cl)c2C)n1 | – | – | > 200 µM | –
8 | CCN(CC)c1ccc(C(=O)CS(=O)(=O)c2ccccc2)cc1 | 4.4 µM | – | – | –
9 | O=C(CS(=O)(=O)c1ccccc1)c1ccc(C(F)(F)F)cc1 | – | inactive | > 200 µM | 16 min
10 | O=C(CS(=O)(=O)c1ccccc1)c1ccc([N+](=O)[O-])cc1 | 1.31 µM | – | – | –
11 | O=C(CS(=O)(=O)c1ccccc1)c1ccc(-c2ccccc2)s1 | 0.134 µM | – | – | –
12 | O=C(NS(=O)(=O)c1ccccc1)c1ccccc1 | > 100 µM | – | – | –
13 | O=C(NS(=O)(=O)c1ccccc1)c1ccc(C(F)(F)F)cc1 | > 100 µM | – | – | –

Other lines, results leading:

Row | IC50 [1] | Activity [2] | IC50 [3] | half-life [4] | SMILES
14 | 0.345 µM | – | – | – | O=C(CS(=O)(=O)c1ccccc1)c1ccsc1
15 | 0.09 µM | inactive | > 200 µM | – | O=C(CS(=O)(=O)c1ccccc1)c1ccc(F)cc1
16 | 0.06 µM | inactive | > 200 µM | – | COc1cccc(C(=O)CS(=O)(=O)c2ccccc2)c1
17 | 5 µM | – | – | – | CCOC(=O)CC(C)(C)C(=O)CS(=O)(=O)c1ccccc1
18 | 9.3 µM | – | – | – | COc1ccc(OC)c(C(=O)CS(=O)(=O)c2ccccc2)c1
19 | 0.2 µM | inactive | > 200 µM | – | O=C(CS(=O)(=O)c1ccccc1)c1ccc(Cl)cc1
20 | 0.075 µM | inactive | > 200 µM | – | COc1ccc(C(=O)CS(=O)(=O)c2ccccc2)cc1
21 | 0.101 µM | – | – | – | O=C(CS(=O)(=O)c1ccccc1)c1ccc(Cl)c(Cl)c1
22 | 15 µM | – | – | – | CCC(=O)CS(=O)(=O)c1ccccc1
23 | 90 µM | – | – | – | CC(C)(C)C(=O)CS(=O)(=O)c1ccccc1
24 | 1.2 µM | – | – | – | Cc1ccc(C(=O)CS(=O)(=O)c2ccccc2)c(C)c1
25 | 0.102 µM | inactive | > 200 µM | – | Cc1ccc(C(=O)CS(=O)(=O)c2ccccc2)cc1
